Test results reported in patent US6409809B1 (priority 1999, dated 2002).

Test: QUV accelerated weathering exposure test of painted aluminum panels (colour fading, CIE La*b*)
Format: physicochemical
Details: Study I, 48 weeks; 6 hr UV/6 hr condensation cycles; mildewcide level 2.0 (% as is); phthalocyanine blue acrylic paint
Description: An exposure test was conducted in two studies to determine the effect of weathering (UV exposure and/or condensation) on samples of panels with paints containing chlorothalonil, tetraconazole, and chlorothalonil/tetraconazole blend additives, respectively. The panels were aluminum having a 3003 alloy mill finish. One coating (6 mils thick when wet) of the selected paint was applied to each panel and allowed to air dry for 7 days at ambient temperature. Simulated weathering was performed by exposure of the panels to a QUV accelerated weathering tester providing UVA radiation at a power consumption of 1200 Watts (110 volts, 60 Hz). The exposure was conducted in alternating and repeating 6-hour cycles, one 6-hour cycle being an ultraviolet radiation exposure cycle (conducted at 80° C.), and the other cycle being a condensation cycle wherein the panels are exposed to moisture (conducted at 60°). The results are set forth below in Table I. CIE La*b* System describes a color space wherein ‘a’ is the green(−)/[…] axis. ‘L’ is lightness; ‘C’ is chroma or saturation.

FC(F)C(F)(F)OCC(Cn1cncn1)c1ccc(Cl)cc1Cl (centres unmarked) [TCZ, Tetraconazole]
DC vs. Blank: 1.02 | DL vs. Blank: −2.20
